Laboratory results published in patent publication US9914735B2, “Heteroaryl Syk inhibitors” (Boehringer Ingelheim International GmbH, priority 2014, dated 2018).
Like-named read-outs stand apart in the source and are kept apart here.

How the values were obtained:
[1] = molecular target: Recombinant human Aurora B (amino acids 1-344) (Homo sapiens (Human), UniProt Q96GD4); test: Aurora B kinase test (ADP Glo luminescence); type: biochemical
[2] = Human liver microsomal stability test; type: in vitro ADME; conditions: human liver microsomes
Method: The metabolic degradation for a specific SYK-inhibitor is performed at 37° C. with pooled human liver microsomes (human liver microsomes are commercially available as “BD UltraPool™” by Corning Life Sciences, Fogostraat 12, 1060 LJ Amsterdam, The Netherlands). The final incubation volume of 100 μl per time point contains TRIS buffer pH 7.6 at RT (0.1 M), magnesium chloride (5 mM), microsomal protein (1 mg/ml) and the test compound at a final concentration of 1 μM.
Following a short preincubation period at 37° C., the reaction is initiated by addition of beta-nicotinamide adenine dinucleotide phosphate in its reduced form (NADPH, 1 mM) and terminated by transfering an aliquot into solvent after different time points. Additionally, the NADPH-independent degradation is monitored in incubations without NADPH, terminated at the last time point.
The quenched (terminated) incubations are then pelleted by centrifugation (10000 g, 5 min).
An aliquot of the supernatant is assayed by LC-MS/MS for the remaining amount of parent compound. The half-life (t1/2 INVITRO) is determined by the slope of the semilogarithmic plot of the concentration-time profile.
The intrinsic clearance (CL_[…]) is calculated by considering the amount of protein in the incubation: CL_[…][μl/min/mg protein]=(Ln 2/(t1/2 INVITRO[min]*protein content[mg/ml]))*1000
The protein content [mg/ml] was determined with the “Bicinchoninic Acid Kit” of Sigma Aldrich (commercially available).
The upscaled intrinsic Clearance (CL_UP_INT) is calculated by considering the liver weight [g liver/kg body weight] and the microsomal recovery [mg protein/g liver]: CL_UP_INT[ml/min/kg]=0.001*CL_[…]*liver weight*microsomal recovery • with microsomal recovery=45 mg protein/g liver • with liver weight=25.7 g liver/kg body weight
The percent hepatic blood flow (% Qh) is finally calculated by considering the human liver blood flow Q [ml/min/kg]: % Qh[%]=((Q*CL_UP_INT)/(Q+CL_UP_INT)/Q)*100 • with liver blood flow (Q)=20.7 ml/min/kg.

FLT3 = FLT3 (Homo sapiens (Human), UniProt P36888); test: FLT3 kinase test (Z'-LYTE); type: biochemical
FLT3, sequence (P36888 27-993): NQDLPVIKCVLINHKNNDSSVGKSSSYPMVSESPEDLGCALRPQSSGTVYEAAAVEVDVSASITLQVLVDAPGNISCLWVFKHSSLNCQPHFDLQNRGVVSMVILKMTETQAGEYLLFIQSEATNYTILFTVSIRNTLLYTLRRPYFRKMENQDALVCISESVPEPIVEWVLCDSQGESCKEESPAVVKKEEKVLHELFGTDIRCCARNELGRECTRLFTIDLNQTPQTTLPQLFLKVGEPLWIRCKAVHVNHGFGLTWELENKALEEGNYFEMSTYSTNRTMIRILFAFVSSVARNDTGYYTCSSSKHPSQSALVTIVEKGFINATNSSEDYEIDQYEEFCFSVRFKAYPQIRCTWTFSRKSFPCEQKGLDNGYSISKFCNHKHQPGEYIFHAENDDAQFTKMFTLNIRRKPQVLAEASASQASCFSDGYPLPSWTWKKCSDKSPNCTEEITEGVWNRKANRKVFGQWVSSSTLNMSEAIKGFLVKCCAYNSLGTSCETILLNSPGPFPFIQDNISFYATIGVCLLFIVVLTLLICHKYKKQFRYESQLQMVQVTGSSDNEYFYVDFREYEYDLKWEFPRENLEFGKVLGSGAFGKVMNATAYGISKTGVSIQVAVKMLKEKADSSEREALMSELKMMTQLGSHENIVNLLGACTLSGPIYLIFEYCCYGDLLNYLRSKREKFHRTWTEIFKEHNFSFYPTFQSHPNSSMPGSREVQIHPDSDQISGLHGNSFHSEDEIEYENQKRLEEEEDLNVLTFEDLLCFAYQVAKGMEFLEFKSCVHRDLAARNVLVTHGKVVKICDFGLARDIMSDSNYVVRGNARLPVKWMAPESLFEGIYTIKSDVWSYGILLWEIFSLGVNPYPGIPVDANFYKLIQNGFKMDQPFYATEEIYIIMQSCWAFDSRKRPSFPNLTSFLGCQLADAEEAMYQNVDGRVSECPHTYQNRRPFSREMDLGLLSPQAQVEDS
Procedure, shortened: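 Z'-LYTE FRET format; kinase reaction started with ATP, run 1 h at room temperature, then 1 h development before stop reagent. Controls without compound, without kinase, and phosphopeptide as 100% phosphorylation reference; values reported in M.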

[3] = molecular target: Recombinant human Syk (amino acids 342-635), GST-Syk kinase fusion protein (Homo sapiens (Human), UniProt P43405); test: Syk kinase test (Kinase Glo luminescence); type: biochemical
Human GSK3beta = Human GSK3beta (Homo sapiens (Human), UniProt P49841); test: GSK 3beta kinase test (Z'-LYTE); type: biochemical; conditions: read-out: IC50 in μM (GSK3beta-Inhibition)
Human GSK3beta, sequence (P49841 whole entry): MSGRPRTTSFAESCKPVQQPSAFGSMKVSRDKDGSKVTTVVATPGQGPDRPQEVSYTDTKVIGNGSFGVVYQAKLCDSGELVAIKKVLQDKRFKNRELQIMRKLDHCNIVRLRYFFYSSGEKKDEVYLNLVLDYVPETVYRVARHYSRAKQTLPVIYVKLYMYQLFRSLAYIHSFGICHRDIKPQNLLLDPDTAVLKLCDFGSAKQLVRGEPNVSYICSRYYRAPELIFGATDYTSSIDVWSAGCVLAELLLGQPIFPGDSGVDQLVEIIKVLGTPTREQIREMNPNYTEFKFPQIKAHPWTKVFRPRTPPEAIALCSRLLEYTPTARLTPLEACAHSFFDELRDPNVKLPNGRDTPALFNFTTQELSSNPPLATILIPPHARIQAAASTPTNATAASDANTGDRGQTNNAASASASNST
Method: Human GSK3beta (expressed and prified from SF21 cells) is obtained from the University Dundee/Scotland (Dr. James Hastie—Dept. of Biochemistry) in 50 mM Tris (pH7.5); 150 mM NaCl; 0.1 mM EGTA, 270 mM Succrose, 0.1% β-mercaptoethanol, 1 mM benzamidine, 0.2 mM PMSF; sequence see below). The enzyme is diluted to 3.56 μM (168 μg/ml) in enzyme dilution buffer and 6 μl aliquots are stored at −80° C.
The activity of GSK3 kinase protein is measured using the Z′-LYTETM assay technology from Invitrogen (# PV3324).
The assay is performed in 384 black plates from Corning (#3676) in a final volume of 10 μl by adding 5 μl of kinase peptide mix and 2.5 μl of compound dilution. The reaction is started by addition of 2.5 μl of the 4×ATP solution.
Positive controls are reaction mixtures containing no test compound; negative controls (blanks) are reaction mixtures containing no ATP. As a further control, the phosphopeptide solution is added to wells without kinase and without ATP (=100% phosphorylation control).
The non inhibited kinase reaction will result in a phosphorylation corresponding to 20%-30% of the phosphorylation control.
The reaction is performed 1 h at room temperature. After 1h 5 μl of the development solution is added. After a further incubation for 1 h at room temperature 5 μl of the stop reagent is added. Finally the plates are read on a Flex Station II 384 (Molecular Devices).
The output text file is evaluated in an “MS-Excel—VB-Makro” and “GraphPadPrism” (Version 5) (GraphPad Software Inc.) is used to calculate the results. Data for the inhibition of GSK3beta are reported in M. data for the inhibition of the protease are reported in % CTL.

[4] = read-out: IC50 in μM (AURB-Inhibition)
[5] = read-out: IC50 in μM (FLT3-Inhibition)
[6] = read-out: IC50 in μM (SYK-Inhibition)
[7] = Table 1, read-out: AURB-inhibition IC50-value
[8] = Table 1, read-out: FLT3-inhibition IC50-value
[9] = Table 1, read-out: SYK-inhibition IC50-value

Recombinant human Aurora B (amino acids 1-344), sequence (Q96GD4 whole entry, the tested form may be a part): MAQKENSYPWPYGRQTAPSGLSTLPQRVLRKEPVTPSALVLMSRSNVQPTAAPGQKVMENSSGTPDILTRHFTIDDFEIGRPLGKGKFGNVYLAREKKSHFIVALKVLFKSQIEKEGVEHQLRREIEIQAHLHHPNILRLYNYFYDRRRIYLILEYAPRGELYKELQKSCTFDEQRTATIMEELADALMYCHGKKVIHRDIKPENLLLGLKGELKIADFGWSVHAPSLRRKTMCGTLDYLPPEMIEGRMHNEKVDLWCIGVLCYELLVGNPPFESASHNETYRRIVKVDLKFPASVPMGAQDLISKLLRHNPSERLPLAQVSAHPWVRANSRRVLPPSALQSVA

Structure (SMILES)	IC50 [1, 4] [µM]	microsomal stability Cl [% Qh] ([2]; Qh = liver blood flow)	IC50 (FLT3; [5]) [µM]	IC50 [3, 6] [µM]	IC50 (Human GSK3beta) [µM]	IC50 [1, 7] [µM]	IC50 (FLT3; [8]) [µM]	IC50 [3, 9] [µM]	IC50 ([1]; Table 2a, read-out: IC50 in μM (AURB-Inhibition)) [µM]	microsomal stability Cl [% Qh] ([2]; test compound 1 μM, Table 2a)	IC50 (FLT3; Table 2a, read-out: IC50 in μM (FLT3-Inhibition)) [µM]	IC50 ([3]; Table 2a, read-out: IC50 in μM (SYK-Inhibition)) [µM]	IC50 (Human GSK3beta; Table 2a) [µM]
C[C@@H](Oc1cc(-c2ccccn2)cc2ncccc12)[C@H]1CNC(=O)C1 [6 of WO 2013/014060]	1.03	24	0.64	0.004	> 1								
COc1ccc(-c2cc3nn(C)cc3c(O[C@H](C)[C@H]3CNC(=O)C3)n2)cc1OC [Example 1, (4R)-4-[(1R)-1-[6-(3,4-Dimethoxyphenyl)-2-methyl-pyrazolo[4,3-c]pyridin-4-yl]oxyethyl]pyrrolidin-2-one]	> 50	<23	3.99	0.016	> 10	> 50	3.99	0.016					
C[C@@H](Oc1cc(-c2ccc3c(cnn3C)c2)cc2nn(C)cc12)[C@H]1CNC(=O)C1 [Example 28, (4R)-4-[(1R)-1-[2-methyl-6-(1-methylindazol-5-yl)indazol-4-yl]oxyethyl]pyrrolidin-2-one]	> 50	<23	3.69	0.0335	> 10	> 50	3.69	0.0335					
C[C@@H](Oc1nc(-c2ccc3cnn(C)c3c2)cc2nn(C)cc12)[C@H]1CNC(=O)C1 [Example 72, (4R)-4-[(1R)-1-[2-methyl-6-(1-methylindazol-6-yl)pyrazolo[4,3-c]pyridin-4-yl]oxyethyl]pyrrolidin-2-one]	> 50	<23	19.6	0.0526	1.45	> 50	19.6	0.0526					
Cc1nc2cc(-c3cc(O[C@H](C)[C@H]4CNC(=O)C4)c4cccnc4c3)ccc2[nH]1 [109 of WO 2013/014060]	0.26	41	0.33	0.001	> 10								
Cc1nc2ccc(-c3cc(O[C@H](C)[C@H]4CNC(=O)C4)c4cccnc4c3)cc2s1 [85 of WO 2013/014060]	0.46	49	0.321	0.002	6.82								
COc1cc(-c2cc(O[C@H](C)[C@H]3CNC(=O)C3)c3cccnc3c2)ccc1C(F)(F)F [102 of WO 2013/014060]	2.63	54	2.27	0.013	> 10								
C[C@@H](Oc1nc(-c2cnn(C(C)(C)C)c2)cc2nn(C)cc12)[C@H]1CNC(=O)C1 [Example 2, (4R)-4-[(1R)-1-[6-(1-tert-Butylpyrazol-4-yl)-2-methyl-pyrazolo[4,3-c]pyridin-4-yl]oxyethyl]pyrrolidin-2-one]						> 50	14.8	0.0144	> 50	<23	14.8	0.0144	> 10
C[C@@H](Oc1cc(-c2ccc(N3CCN(C)CC3)cc2)cc2nn(C)cc12)[C@H]1CNC(=O)C1 [Example 26, (4R)-4-[(1R)-1-[2-methyl-6-[4-(4-methylpiperazin-1-yl)phenyl]indazol-4-yl]oxyethyl]pyrrolidin-2-one]	> 50	<23	0.95	0.0258	> 10	> 50	0.95	0.0258					
COc1ccc(-c2cc3nn(C)cc3c(O[C@H](C)[C@H]3CNC(=O)C3)n2)cn1 [Example 59, (4R)-4-[(1R)-1-[6-(6-methoxy-3-pyridyl)-2-methyl-pyrazolo-[4,3-c]pyridin-4-yl]oxyethyl]-pyrrolidin-2-one]	> 50	<23	46.2	0.144	> 10	> 50	46.2	0.144					
C[C@@H](Oc1nc(-c2ccc(C(F)F)nc2)cc2nn(C)cc12)[C@H]1CNC(=O)C1 [Example 51, (4R)-4-[(1R)-1-[6-[6-(difluoromethyl)-3-pyridyl]-2-methyl-pyrazolo[4,3-c]pyridin-4-yl]oxyethyl]pyrrolidin-2-one]	49.8	<23	20.9	0.366	> 10	49.8	20.9	0.366					
C[C@@H](Oc1cc(-c2ccc3c(c2)c(N)nn3C)cc2nn(C)cc12)[C@H]1CNC(=O)C1 [Example 36, (4R)-4-[(1R)-1-[6-(3-amino-1-methyl-indazol-5-yl)-2-methyl-indazol-4-yl]oxyethyl]pyrrolidin-2-one]	35.2	<23	2.39	0.0172	> 10	35.2	2.39	0.0172					
C[C@@H](Oc1nc(-c2ccc3c(cnn3C)c2)cc2nn(C)cc12)[C@H]1CNC(=O)C1 [Example 62, (4R)-4-[(1R)-1-[2-methyl-6-(1-methylindazol-5-yl)pyrazolo[4,3-c]pyridin-4-yl]oxyethyl]pyrrolidin-2-one]	> 50	<23	4.78	0.0193	> 10	> 50	4.78	0.0193					
C[C@@H](Oc1nc(-c2ccc(N3CCN(C)CC3)cc2)cc2nn(C)cc12)[C@H]1CNC(=O)C1 [Example 67, (4R)-4-[(1R)-1-[2-methyl-6-[4-(4-methylpiperazin-1-yl)phenyl]pyrazolo[4,3-c]pyridin-4-yl]oxyethyl]-pyrrolidin-2-one]	> 50	34	1.68	0.0152	> 10	> 50	1.68	0.0152					
COc1cc(-c2cc3ncccc3c(O[C@H](C)[C@H]3CNC(=O)C3)n2)ccc1OC(F)(F)F [4 of WO 2011/092128]	1.85	33	0.633	0.003	> 10								
C[C@@H](Oc1nc(-c2ccc(C(F)(F)F)nc2)cc2nn(C)cc12)[C@H]1CNC(=O)C1 [Example 61, (4R)-4-[(1R)-1-[2-methyl-6-[6-(trifluoromethyl)-3-pyridyl]pyrazolo[4,3-c]pyridin-4-yl]oxyethyl]pyrrolidin-2-one]	> 50	<23	48.1	0.475	> 10	> 50	48.1	0.475					
